Measured values reported in patent US7262220B2, “Urea- and urethane-substituted acylureas, process for their preparation and their use” (Sanofi-Aventis Deutschland GmbH, priority 2002, dated 2007).
Read-outs that look alike come from different tables or passages of the source.

Target: T1, human glycogen phosphorylase a (Homo sapiens, UniProt P06737)
T1 sequence (P06737 1-847): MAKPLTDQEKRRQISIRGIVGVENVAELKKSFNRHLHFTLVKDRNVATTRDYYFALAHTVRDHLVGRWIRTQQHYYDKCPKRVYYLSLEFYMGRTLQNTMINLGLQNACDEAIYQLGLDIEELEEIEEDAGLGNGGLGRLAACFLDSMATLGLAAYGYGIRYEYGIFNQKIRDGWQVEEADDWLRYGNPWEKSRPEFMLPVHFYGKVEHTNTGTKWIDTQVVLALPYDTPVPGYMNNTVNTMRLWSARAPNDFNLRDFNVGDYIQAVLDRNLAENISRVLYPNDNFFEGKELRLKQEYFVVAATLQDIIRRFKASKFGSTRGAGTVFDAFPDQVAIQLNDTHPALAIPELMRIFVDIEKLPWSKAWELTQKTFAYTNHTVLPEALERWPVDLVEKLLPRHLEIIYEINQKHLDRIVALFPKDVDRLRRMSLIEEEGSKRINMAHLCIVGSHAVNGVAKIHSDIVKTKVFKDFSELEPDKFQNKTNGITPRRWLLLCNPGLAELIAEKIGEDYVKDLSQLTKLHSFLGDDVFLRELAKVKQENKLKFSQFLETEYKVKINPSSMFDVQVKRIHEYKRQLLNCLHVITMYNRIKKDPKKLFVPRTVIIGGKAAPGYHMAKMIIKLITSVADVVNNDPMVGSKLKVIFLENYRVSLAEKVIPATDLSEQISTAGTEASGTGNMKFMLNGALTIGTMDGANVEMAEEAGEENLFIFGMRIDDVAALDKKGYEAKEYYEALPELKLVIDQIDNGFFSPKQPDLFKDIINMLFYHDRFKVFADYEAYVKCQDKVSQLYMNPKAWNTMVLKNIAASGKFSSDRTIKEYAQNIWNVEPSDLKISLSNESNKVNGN
Test: Glycogen phosphorylase a activity assay
Format: biochemical
Conditions: read-out: % inhibition at 10 μM
Experimental: Glycogen Phosphorylase a Activity Assay
The effect of compounds on the activity of the active form of glycogen phosphorylase (GPa) was measured in the reverse direction by following the synthesis of glycogen from glucose 1-phosphate by determining the liberation of inorganic phosphate. All the reactions were carried out as duplicate determinations in microtiter plates with 96 wells (Half Area Plates, Costar No 3696), measuring the change in absorption owing to the formation of the reaction product at the wavelength specified hereinafter in a Multiskan Ascent Elisa Reader (Lab Systems, Finland). In order to measure the GPa enzymic activity in the reverse direction, the general method of Engers et al. (Engers H D, Shechosky S, Madsen N B, Can J Biochem 1970 July; 48(7):746-754) was used to measure the conversion of glucose 1-phosphate into glycogen and inorganic phosphate, with the following modifications: human glycogen phosphorylase a (for example with 0.76 mg of protein/ml (Aventis Pharma Deutschland GmbH), dissolved in buffer solution E (25 mM β-glycerophosphate, pH 7.0, 1 mM EDTA and 1 mM dithiothreitol) was diluted with buffer T (50 mM hepes, pH 7.0, 100 mM KCl, 2.5 mM EDTA, 2.5 mM MgCl26H2O) and addition of 5 mg/ml glycogen to a concentration of 10 μg of protein/ml. […] The baseline glycogen phosphorylase a activity in the absence of test substance was determined by adding 10 μl of buffer solution T (0.1% DMSO). The mixture was incubated at room temperature for 40 minutes, and the liberated […] was measured by the general method of Drueckes et al. (Drueckes P, Schinzel R, Palm D, Anal Biochem 1995 Sep. 1; 230(1):173-177) with the following modifications: 50 μl of a stop solution of 7.3 mM ammonium molybdate, 10.9 mM zinc acetate, 3.6% ascorbic acid, 0.9% SDS are added to 50 μl of the enzyme mixture. After incubation at 45° C. for 60 minutes, the absorption at 820 nm was measured. […]

[1] = 10 μM test substance, GPa activity measured in the reverse direction (liberation of inorganic phosphate), duplicate determinations

Row | inhibition at 10 µM [1] [%] | Structure (SMILES) | inhibition at 10 µM [%]
1 |  | COC(=O)/C=C/c1ccc(NC(=O)Oc2ccc(Cl)cc2)cc1NC(=O)NC(=O)c1cc(F)c(F)cc1Cl [Example 110, Methyl (E)-3-[2-[3-(2-chloro-4,5-difluorobenzoyl)ureido]-4-(4-chloro-phenoxycarbonylamino)phenyl]acrylate] | 73
2 | 97 | COc1cc2c(=O)[nH]c(=O)[nH]c2cc1NC(=O)NC(=O)c1cc(F)c(F)cc1Cl [Example 132, 1-(2-Chloro-4,5-difluorobenzoyl)-3-(6-methoxy-2,4-dioxo-1,2,3,4-tetrahydro-quinazolin-7-yl)urea] | 
3 | 53 | COC(=O)Nc1ccc(C(=O)O)cc1NC(=O)NC(=O)c1ccc(F)cc1Cl [Example 3, 3-[3-(2-Chloro-4-fluorobenzoyl)ureido]-4-methoxycarbonylaminobenzoic acid] | 
